From patent US10165776B2, “Substituted pyrazolylpyrazole derivative and use of same as herbicide” (KYOYU AGRI CO., LTD., priority 2015, dated 2019)

Tests used:
Assay type in all cases: in vivo
[1] = test system: Echinochloa crus-galli; assay: Paddy herbicidal activity test; details: irrigated pot, treated at 3.5 leaf stage of Echinochloa crus-galli, 30 days at 30° C.
Method: (§1) Rice paddy soil was filled into a 1/10000 are pot followed by the addition of suitable amounts of water and chemical fertilizer, kneading, seeding with Echinochloa crus-galli, Monochoria vaginalis and Scirpus juncoides and maintaining in an irrigated state at a water depth of 3 cm. Wettable powders of Target Compound (I) shown in Table 1 prepared in compliance with the preparation examples were diluted with a suitable amount of water, rice plants in the 2.0 leaf stage were transplanted during 3.5 leaf stage of Echinochloa crus-galli, and treated by dropping in chemical in the prescribed amount per 10 are using a pipette. After treating for 30 days in a glass greenhouse at an average atmospheric temperature of 30° C., the herbicidal efficacy thereof was investigated. Evaluation of herbicidal efficacy was carried out by comparing growth inhibition rate (%) with an untreated group, while evaluation of phytotoxicity was carried out by comparing growth inhibition rate (%) with the state of a complete eradication group, and were evaluated at 11 levels indicated below.

[2] = test system: Scirpus juncoides; assay: Paddy herbicidal activity test; details: irrigated pot, treated at 3.5 leaf stage of Echinochloa crus-galli, 30 days at 30° C.
Method: as §1

[3] = test system: Monochoria vaginalis; assay: Paddy herbicidal activity test; details: irrigated pot, treated at 3.5 leaf stage of Echinochloa crus-galli, 30 days at 30° C.
Method: as §1

[4] = test system: Chenopodium album; assay: Farming soil treatment test; details: soil surface spray prior to weed growth, 30 days at 30° C.
Method: (§2) Field soil was filled into a 1/6000 are pot followed by seeding with Digitaria ciliaris, Chenopodium album and Amaranthus retroflexus and covering with soil. Wettable powders of compounds of formula (I) shown in Table 1 prepared in compliance with the preparation examples were diluted with water to the prescribed amount of chemical and uniformly sprayed onto each soil surface layer using 100 liters of sprayed water per 10 are prior to weed growth following seeding. After treating for 30 days in a glass greenhouse at an average atmospheric temperature of 30° C., the herbicidal efficacy thereof was investigated. Evaluation of herbicidal efficacy was carried out in the same manner as the above-mentioned Test Example 1.

[5] = test system: Amaranthus retroflexus; assay: Farming soil treatment test; details: soil surface spray prior to weed growth, 30 days at 30° C.
Method: as §2

[6] = test system: Digitaria ciliaris; assay: Farming soil treatment test; details: soil surface spray prior to weed growth, 30 days at 30° C.
Method: as §2

[7] = test system: Digitaria ciliaris; assay: Weed foliar treatment test (Test 4, 4.0 to 5.0 leaf stage); details: 10 g a.i./10 a; foliar spray at 4.0 to 5.0 leaf stage of Digitaria ciliaris (plant height 10 cm to 15 cm); 20 days at 25° C.
Method: (§3) Field soil was filled into a 1/4500 are pot followed by seeding with Digitaria ciliaris and Galinsoga parviflora, covering with soil and cultivating in a glass greenhouse at an average atmospheric temperature of 25° C. Wettable powders of Target Compound (I) shown in Table 1 prepared in compliance with the preparation examples were diluted with water to the prescribed amount of chemical and uniformly sprayed onto the weeds using 100 liters of sprayed water per 10 are when Digitaria ciliaris had grown to the 4.0 to 5.0 leaf stage (plant height: 10 cm to 15 cm). After treating for 20 days in a glass greenhouse at an average atmospheric temperature of 25° C., the herbicidal efficacy thereof was investigated. Evaluation of herbicidal efficacy was carried out in the same manner as the above-mentioned Test Example 1.

[8] = test system: Galinsoga parviflora; assay: as above; details: 10 g a.i./10 a; foliar spray at 4.0 to 5.0 leaf stage of Digitaria ciliaris (plant height 10 cm to 15 cm); 20 days at 25° C.
Method: as §3

[9] = test system: Oryza sativa; assay: Paddy herbicidal activity test, phytotoxicity to transplanted rice; details: rice transplanted at 2.0 leaf stage, 30 days at 30° C.
Method: as §1

[10] = test system: Chenopodium album; assay: Weed foliar treatment test (Test 3, 1.0 to 2.0 leaf stage); details: foliar spray at 1.0 to 2.0 leaf stage of Digitaria ciliaris, 3 weeks at 25° C.
Method: (§4) Soil was filled into a 1/6000 are pot followed by seeding with Digitaria ciliaris, Chenopodium album and Amaranthus retroflexus, covering with soil, and cultivating in a glass greenhouse at an average atmospheric temperature of 25° C. Wettable powders of Target Compound (I) shown in Table 1 prepared in compliance with the preparation examples were diluted with water to the prescribed amount of chemical and uniformly sprayed onto the weeds using 150 liters of sprayed water per 10 are when Digitaria ciliaris had grown to the 1.0 to 2.0 leaf stage. After treating for 3 weeks in a glass greenhouse at an average atmospheric temperature of 25° C., the herbicidal efficacy thereof was investigated. Evaluation of herbicidal efficacy was carried out in the same manner as the above-mentioned Test Example 1.

[11] = test system: Amaranthus retroflexus; assay: as above; details: foliar spray at 1.0 to 2.0 leaf stage of Digitaria ciliaris, 3 weeks at 25° C.
Method: as §4

[12] = test system: Digitaria ciliaris; assay: as above; details: foliar spray at 1.0 to 2.0 leaf stage of Digitaria ciliaris, 3 weeks at 25° C.
Method: as §4

Structure (SMILES) | herbicidal efficacy, Echinochloa crus-galli ([1]; 1 g a.i./10 a) | herbicidal efficacy, Echinochloa crus-galli ([1]; 5 g a.i./10 a) | herbicidal efficacy, Scirpus juncoides ([2]; 1 g a.i./10 a) | herbicidal efficacy, Scirpus juncoides ([2]; 5 g a.i./10 a) | herbicidal efficacy, Monochoria vaginalis ([3]; 1 g a.i./10 a) | herbicidal efficacy, Monochoria vaginalis ([3]; 5 g a.i./10 a) | herbicidal efficacy, Chenopodium album ([4]; 5 g a.i./10 a) | herbicidal efficacy, Chenopodium album ([4]; 10 g a.i./10 a) | herbicidal efficacy, Amaranthus retroflexus ([5]; 5 g a.i./10 a) | herbicidal efficacy, Amaranthus retroflexus ([5]; 10 g a.i./10 a) | herbicidal efficacy, Digitaria ciliaris ([6]; 5 g a.i./10 a) | herbicidal efficacy, Digitaria ciliaris ([6]; 10 g a.i./10 a) | herbicidal efficacy, Digitaria ciliaris [7] | herbicidal efficacy, Galinsoga parviflora [8] | phytotoxicity, Oryza sativa ([9]; 1 g a.i./10 a) | phytotoxicity, Oryza sativa ([9]; 5 g a.i./10 a) | herbicidal efficacy, Chenopodium album ([10]; 5 g a.i./10 a) | herbicidal efficacy, Chenopodium album ([10]; 10 g a.i./10 a) | herbicidal efficacy, Amaranthus retroflexus ([11]; 5 g a.i./10 a) | herbicidal efficacy, Amaranthus retroflexus ([11]; 10 g a.i./10 a) | further results
N#Cc1cnn(-c2nn3c(c2Cl)CCCC3)c1NC(=O)Cc1ccccc1 [Compound 3] | 9 (9: 90% to less than 100%) | 10 (10: 100%) | 9 (9: 90% to less than 100%) | 10 (10: 100%) | 9 (9: 90% to less than 100%) | 10 (10: 100%) | 9 (9: 90% to less than 100%) | 10 (10: 100%) | 9 (9: 90% to less than 100%) | 9 (9: 90% to less than 100%) | 9 (9: 90% to less than 100%) | 9 (9: 90% to less than 100%) | 10 (10: 100%) | 10 (10: 100%) | 0 (0 (exponent): 0% to less than 10% (growth inhibition rate)) | 1 (1: 10% to less than 20%) | 10 (10: 100%) | 10 (10: 100%) | 9 (9: 90% to less than 100%) | 10 (10: 100%) | herbicidal efficacy, Digitaria ciliaris ([12]; 5 g a.i./10 a): 10 (10: 100%); herbicidal efficacy, Digitaria ciliaris ([12]; 10 g a.i./10 a): 10 (10: 100%)
N#Cc1cnn(-c2nn3c(c2Cl)CCCC3)c1NC(=O)CCc1ccccc1 [Compound 19] | 9 (9: 90% to less than 100%) | 10 (10: 100%) | 10 (10: 100%) | 10 (10: 100%) | 10 (10: 100%) | 10 (10: 100%) | 10 (10: 100%) | 10 (10: 100%) | 10 (10: 100%) | 10 (10: 100%) | 10 (10: 100%) | 10 (10: 100%) | 10 (10: 100%) | 10 (10: 100%) | 0 (0 (exponent): 0% to less than 10% (growth inhibition rate)) | 1 (1: 10% to less than 20%) | 10 (10: 100%) | 10 (10: 100%) | 10 (10: 100%) | 10 (10: 100%) | herbicidal efficacy, Digitaria ciliaris ([12]; 5 g a.i./10 a): 10 (10: 100%); herbicidal efficacy, Digitaria ciliaris ([12]; 10 g a.i./10 a): 10 (10: 100%)
O=C(Nc1c([N+](=O)[O-])cnn1-c1nn2c(c1Cl)CCCC2)c1ccccc1 [Control agent 2.19, reference compound] | 3 (3: 30% to less than 40%) | 4 (4: 40% to less than 50%) | 1 (1: 10% to less than 20%) | 2 (2: 20% to less than 30%) | 1 (1: 10% to less than 20%) | 1 (1: 10% to less than 20%) | 3 (3: 30% to less than 40%) | 4 (4: 40% to less than 50%) | 1 (1: 10% to less than 20%) | 3 (3: 30% to less than 40%) | 0 (0 (exponent): 0% to less than 10% (growth inhibition rate)) | 2 (2: 20% to less than 30%) | 1 (1: 10% to less than 20%) | 3 (3: 30% to less than 40%) | 1 (1: 10% to less than 20%) | 1 (1: 10% to less than 20%) | 4 (4: 40% to less than 50%) | 5 (5: 50% to less than 60%) | 4 (4: 40% to less than 50%) | 4 (4: 40% to less than 50%) | herbicidal efficacy, Digitaria ciliaris ([12]; 5 g a.i./10 a): 1 (1: 10% to less than 20%); herbicidal efficacy, Digitaria ciliaris ([12]; 10 g a.i./10 a): 2 (2: 20% to less than 30%)
